Source: paper PMC12040169 (PLOS Biology, 2025)

Experiment: in vitro
Details: human, hela cells, % viability

Row | Structure (SMILES) | viability at 28.5 h, 10 µM
1 | CN(C)CCN(C)c1cccc(-c2cccc(OC(F)(F)F)c2)n1 [CBK037020] | 102%
2 | COc1cc(C)c(Nc2cccc(-c3ccsc3)n2)cc1OC [CBK037025] | 104%
3 | CN(C)CCN(C)c1ccc(/C=C/c2ccccc2)cn1 [CBK037026] | 98.4%
4 | COc1ccc(CNc2cc(-c3cccc(Cl)c3)nc3ccnn23)cc1 [CBK037037] | 95.8%
5 | CN(C)c1ccccc1-c1cc(NC2CCCCC2)ncn1 [CBK037041] | 105%
6 | OCc1ccc(-c2cc(NCc3cccs3)n3nccc3n2)cc1 [CBK037046] | 106%
7 | CN(C)CCN1CCN(c2nccnc2-c2cccc(CO)c2)CC1 [CBK037047] | 94.7%
8 | CN1CCN(C(=O)c2cccc(-c3nccnc3NCc3cccc(Cl)c3)c2)CC1 [CBK037048] | 108%
9 | Nc1cccc(-c2cc(N3CCCC3CO)n3nccc3n2)c1 (stereo not shown) [CBK037049] | 88.6%
10 | CC(C)Nc1nccnc1-c1cccnc1 [CBK037054] | 98.9%
11 | CC(O)CNc1nccnc1-c1cccc(O)c1 (stereo not shown) [CBK037055] | 97.6%
12 | CC(O)CNc1nccnc1-c1cccc(CO)c1 (stereo not shown) [CBK037056] | 91.5%
13 | C[C@@H](Nc1nccnc1-c1ccc(C(=O)N2CCOCC2)cc1)c1ccccc1 [CBK037058] | 107%
14 | Clc1cc(N[C@@H]2CCN(Cc3ccccc3)C2)n2nccc2n1 [CBK037069] | 92.3%
15 | COc1cc(-c2nccnc2NCc2ccco2)cc(OC)c1OC [CBK037072] | 111%
16 | COc1ccc(CNc2cc(/C=C/c3ccccc3)nc3ccnn23)cc1 [CBK037075] | 103%
17 | O=C(CCc1cccc(F)c1)Nc1cnc(-c2ccc(F)cc2)c(-c2ccoc2)n1 [CBK037077] | 85.3%
18 | OCCCNc1cc(Nc2ccccc2)n2nccc2n1 [CBK037078] | 102%
19 | COc1ccccc1-c1nccnc1N1CCN(c2ccncc2)CC1 [CBK037081] | 87.8%
20 | CCC(CO)Nc1nccnc1-c1cccc(C(=O)N2CCN(C)CC2)c1 (stereo not shown) [CBK037087] | 92.6%
21 | COc1ccc(C(C)C)cc1-c1cc(NCCc2cccnc2)n2nccc2n1 [CBK037097] | 104%
22 | OCc1ccccc1-c1nccnc1NCc1ccco1 [CBK037098] | 94.5%
23 | O=C(Cc1csc2ccccc12)Nc1cnc(-c2ccc(F)cc2)c(-c2ccoc2)n1 [CBK037102] | 93.3%
24 | OCc1ccccc1-c1cc(N2CCN(Cc3cccnc3)CC2)n2nccc2n1 [CBK037105] | 98.9%

Row | Structure (SMILES) | viability at 28.5 h, 10 µM
25 | Clc1cc(Nc2cccc(OCc3ccccc3)c2)n2nccc2n1 [CBK037109] | 92.2%
26 | COc1ccccc1OCC(=O)Nc1cnc(-c2cccc(C)c2)c(-c2cccnc2)n1 [CBK037112] | 84.1%
27 | CN(c1ccccc1)c1cc(-c2cccc(O)c2)nc2ccnn12 [CBK037121] | 91%
28 | COc1cc(CNc2cc(-c3ccccc3N(C)C)ncn2)cc(OC)c1OC [CBK037123] | 93.1%
29 | CCCC/C=C/c1cc(NCCC)n2nccc2n1 [CBK037127] | 99.1%
30 | COc1ccc(C(C)C)cc1-c1cncc(NCC(c2cccnc2)N(C)C)n1 (stereo not shown) [CBK037132] | 110%
31 | Cc1cccc(-c2ncc(NC(=O)C3CC3)nc2-c2cccnc2)c1 [CBK037134] | 98.9%
32 | CN1CCN(c2ccc(-c3cncc(NCCc4ccccn4)n3)cn2)CC1 [CBK037135] | 87.2%
33 | CCCC/C=C/c1nccnc1N[C@@H](C)c1ccccc1 [CBK037138] | 84.7%
34 | CN(C)CCN(C)c1cc(-c2cccc(Br)c2)nc2ccnn12 [CBK037140] | 106%
35 | CN(C)CCN(C)c1cncc(-c2ccc3ccccc3c2)n1 [CBK037146] | 77.7%
36 | COc1ccc(-c2nc(NC(=O)c3cnccn3)cnc2-c2ccc(F)cc2)cc1 [CBK037150] | 104%
37 | CC(=O)c1ccc(-c2nc(NC(=O)CC3OC(=O)c4ccccc43)cnc2-c2cccc(C)c2)s1 (stereo not shown) [CBK037152] | 112%
38 | CCCC/C=C/c1cc(NCCc2ccccn2)n2nccc2n1 [CBK037155] | 96.5%
39 | CN1CCN(c2cc(-c3ccccc3N(C)C)nc3ccnn23)CC1 [CBK037158] | 108%
40 | O=C(CCOc1ccc(F)cc1)Nc1cnc(-c2ccc(F)cc2)c(-c2ccoc2)n1 [CBK037166] | 91.9%
41 | O=C(CS(=O)(=O)c1ccccc1)Nc1cnc(-c2ccc(F)cc2)c(-c2ccoc2)n1 [CBK037168] | 107%
42 | C[C@H](Nc1nccnc1-c1cccc(O)c1)c1ccccc1 [CBK037180] | 106%
43 | OCCN1CCN(c2cc(Nc3ccc(Oc4ccccc4)cc3)nc3ccnn23)CC1 [CBK037185] | 94.9%
44 | O=C(NCCO)c1cccc(-c2cc(N3CCCC3CO)n3nccc3n2)c1 (stereo not shown) [CBK037187] | 96.7%
45 | CN(C)c1ccccc1-c1cc(NCCc2ccccn2)ncn1 [CBK037189] | 102%
46 | CN(C)c1ccc(-c2cncc(NCc3ccc4c(c3)OCO4)n2)cc1 [CBK037190] | 108%
47 | OCC1CCCN1c1cncc(-c2ccc3ccccc3c2)n1 (stereo not shown) [CBK037197] | 104%
48 | COc1ccc(-c2nc(NC(=O)CC#N)cnc2-c2ccc(F)cc2)cc1 [CBK037198] | 104%

Row | Structure (SMILES) | viability at 28.5 h, 10 µM
49 | CC(C)(CO)CNc1cc(Cl)nc2ccnn12 [CBK037200] | 91%
50 | CN(C)c1ccc(Nc2cc(Cl)nc3ccnn23)cc1 [CBK037203] | 98.3%
51 | CN(C)CCN(C)c1cc(-c2cccc(C(=O)O)c2)nc2ccnn12 [CBK037206] | 101%
52 | CCCNc1nccnc1-c1cc(C)c(O)c(C)c1 [CBK037210] | 87.6%
53 | CN(C)CCN1CCN(c2cc(Nc3ccc(N(C)C)cc3)nc3ccnn23)CC1 [CBK037211] | 93.4%
54 | CN1CCCN(c2cncc(-c3cccnc3)n2)CC1 [CBK037215] | 92.9%
55 | Nc1cccc(-c2cncc(NCC3CCOCC3)n2)c1 [CBK037221] | 96.8%
56 | COc1ccc(-c2cncc(N3CCCC3CO)n2)cc1 (stereo not shown) [CBK037223] | 112%
57 | CN1CCN(c2ccc(-c3cncc(NC4CCOCC4)n3)cn2)CC1 [CBK037229] | 105%
58 | CCCNc1nccnc1-c1ccccc1F [CBK037231] | 104%
59 | COc1cc(Nc2cc(-c3cccc(N)c3)nc3ccnn23)cc(OC)c1OC [CBK037236] | 105%
60 | Clc1cccc(-c2cncc(NCC3CCOCC3)n2)c1 [CBK037237] | 103%
61 | Fc1ccc(-c2cn3ccnc3c(Nc3cccc(OC(F)(F)C(F)F)c3)n2)cc1Cl [CBK037265] | 98.1%
62 | COc1ccccc1-c1cn2ccnc2c(N2CCCC2CO)n1 (stereo not shown) [CBK037266] | 96.5%
63 | CCCC/C=C/c1nccnc1NCC1CC1 [CBK037268] | 100%
64 | COc1ccc(C(C)C)cc1-c1cn2ccnc2c(NCc2ccco2)n1 [CBK037269] | 98.2%
65 | c1ccc(CCNc2nc(-c3ccc(N4CCOCC4)cc3)cn3ccnc23)nc1 [CBK037271] | 96.4%
66 | CCCC/C=C/c1cncc(N2CCN(c3ccccn3)CC2)n1 [CBK037276] | 117%
67 | OCCCNc1nccnc1-c1cccnc1 [CBK037277] | 108%
68 | COc1cc(-c2cn3ccnc3c(NCC3CCOCC3)n2)cc(OC)c1OC [CBK037284] | 96.8%
69 | COc1ccc(-c2cncc(NCC3CCOCC3)n2)cc1 [CBK037285] | 96.5%
70 | COc1cc(Nc2nc(-c3ccccc3F)cn3ccnc23)cc(OC)c1OC [CBK037301] | 98.9%
71 | Cc1ccc(S(=O)(=O)Nc2ccc(Nc3nc(-c4ccccc4)cn4ccnc34)cc2)cc1 [CBK037303] | 104%
72 | CCCC/C=C/c1nccnc1NCc1ccc2c(c1)OCO2 [CBK037304] | 98.1%

Row | Structure (SMILES) | viability at 28.5 h, 10 µM
73 | c1cncc(-c2nccnc2NCC2CC2)c1 [CBK037310] | 80.9%
74 | COc1cc(CNc2nccnc2-c2ccco2)cc(OC)c1OC [CBK037320] | 89.9%
75 | COCCNc1nccnc1-c1cccc(C(F)(F)F)c1 [CBK037330] | 89.7%
76 | c1coc(-c2cn3ccnc3c(NCCc3ccncc3)n2)c1 [CBK037333] | 93.5%
77 | COc1ccc(C(C)C)cc1-c1cn2ccnc2c(Nc2ccc(N3CCOCC3)cc2)n1 [CBK037338] | 103%
78 | O=C(c1ccco1)N1CCN(c2cncc(-c3cccc4cccnc34)n2)CC1 [CBK037339] | 96.9%
79 | OCCCNc1nccnc1-c1ccco1 [CBK037346] | 99.2%
80 | OCCCNc1nccnc1-c1ccc(F)cc1 [CBK037348] | 109%
81 | c1ccc(-c2cn3ccnc3c(NCC3CCOCC3)n2)cc1 [CBK037356] | 99.1%
82 | OCCC1CCCCN1c1nccnc1-c1ccsc1 (stereo not shown) [CBK037358] | 105%
83 | c1coc(-c2cn3ccnc3c(Nc3ccc4[nH]ccc4c3)n2)c1 [CBK037361] | 91.9%
84 | Clc1ccccc1-c1nccnc1NCc1cccs1 [CBK037362] | 98.6%
85 | N#Cc1ccccc1N1CCN(c2cncc(-c3cccc4cccnc34)n2)CC1 [CBK037366] | 102%
86 | CC(C)[C@@H](CO)Nc1nc(-c2ccccc2Cl)cn2ccnc12 [CBK037368] | 101%
87 | CCCC/C=C/c1nccnc1NCCc1ccncc1 [CBK037370] | 99.9%
88 | COc1ccccc1-c1cn2ccnc2c(NCc2ccccc2)n1 [CBK037372] | 92.7%
89 | COCCNc1nccnc1-c1cccnc1 [CBK037376] | 102%
90 | c1cncc(CCNc2nccnc2-c2cccnc2)c1 [CBK037380] | 93%
91 | COc1cc(-c2cn3ccnc3c(N[C@@H]3CCN(Cc4ccccc4)C3)n2)cc(OC)c1OC [CBK037385] | 113%
92 | c1ccc2c(-c3cn4ccnc4c(N4CCOCC4)n3)cccc2c1 [CBK037387] | 91.6%
93 | Cc1cccc(C)c1-c1cn2ccnc2c(N2CCN(c3ccccn3)CC2)n1 [CBK037389] | 89%
94 | CN(Cc1ccccc1)c1nccnc1-c1ccsc1 [CBK037394] | 91%
